The values below come from patent USRE38090E1, “3′-substituted nucleoside derivative” (Taiho Pharmaceutical Co., Ltd., priority 1994, dated 2003).

For data set [1], the system named is Human KB cells. The data set can be described thus: Cytotoxicity, MTT method. The data set is classed as cell-based. The following applies: 72 h, 3 days at 37° C., read-out: IC50 (concentration at which the number of cells was decreased by 50%). On the procedure:
Human KB cells were spread in a proportion of 1×10^5 cells/well on a 96-well plate. After a compound according to the present invention was dissolved in purified water, the solution was diluted to various concentrations with an RPMI 1640 medium and then added to each well, thereby conducting culture. After incubating at 37° C. for 3 days in a 5% CO2-incubator, the number of cells was counted by an MTT method.
The cytotoxicity of each of the compounds tested was expressed by a concentration (IC50) of the compound at which the number of cells was decreased by 50% compared with a control.
Background: Tetrazolium dyes change colour on reduction, which living cells bring about.

Data set [2] deals with Murine Leukemia P388 cells. In words: Survival effect against murine leukemia P388. The following applies: P388 implanted i.p. in female CDFI mice. The data set is classed as in vivo. The protocol:
Survival effect against murine leukemia P388:
Murine Leukemia P388 cells (1×10^6 cells) were implanted intraperitoneally in three female CDFI mice (aged 8 weeks) per group. On the day subsequent to the implantation and the fifth day, test compounds at varied concentrations were administered intraperitoneally to their corresponding groups of mice. Average survival days of each group were determined to find a survival rate (T/C, %) in accordance with the following equation.

Setting [3] is: dose 1 mg/kg i.p. on day 1 and day 5.
[4] abbreviates: dose 3 mg/kg i.p. on day 1 and day 5.

Converted amounts (≈) assume the structure as drawn. Counter-ions that a name gives are not always drawn.

On to `CC#C[C@@]1(O)[C@@H](CO)O[C@@H](n2ccc(N)nc2=O)[C@@H]1O` (as salt: salt) [Compound 18, 1-(3-C-(1-propynyl)-β-D-ribofuranosyl)cytosine], for which the melting point (commonly the temperature of the solid-liquid transition) was 162 to 165 °C.

`CCC#C[C@@]1(O)[C@@H](CO)O[C@@H](n2ccc(N)nc2=O)[C@@H]1O` (as salt: salt) [Compound 20, 1-(3-C-(1-butynyl)-β-D-ribofuranosyl) cytosine] showed a melting point of 181 to 184 °C.

On to `CC[C@@]1(O)[C@@H](CO)O[C@@H](n2ccc(=O)[nH]c2=O)[C@@H]1O` [Comparative compound 1, 1-(3-C-ethyl-β-D-ribofuranosyl)uracil, reference compound], for which the IC50 in data set [1] is over 100000 ng/mL.

`C#C[C@@]1(O)[C@@H](CO)O[C@@H](n2ccc(N)nc2=O)[C@@H]1O` [Compound 2, 1-(3-C-ethynyl-β-D-ribofuranosyl) cytosine]: the entries for the “survival rate T/C (%)” value in data set [2] (setting [3]) and in data set [2] (setting [4]) were 211% and 206%, respectively.

Regarding `C#C[C@@]1(O)[C@@H](CO)O[C@@H](n2cc(F)c(N)nc2=O)[C@@H]1O` [Compound 4, 1-(3-C-ethynyl-β-D-ribofuranosyl)-5-fluorocytosine], the melting point was 242 °C (dec.).

In the case of `C#C[C@@]1(O)[C@@H](CO)O[C@@H](n2ccc(=O)[nH]c2=O)[C@@H]1O` [Compound 7, 1-(3-C-ethynyl-β-D-ribofuranosyl) uracil], the results for the “survival rate T/C (%)” value in data set [2] (setting [3]) and in data set [2] (setting [4]) were 144% and 150%, respectively. The IC50 in data set [1] turned out to be 7.7 ng/mL (≈ 0.0287 µM).

With `C#C[C@@]1(O)[C@@H](CO)O[C@@H](n2c(=O)cc[nH]c2=O)[C@@H]1O` [Compound 8, 3-(3-C-ethynyl-β-D-ribofuranosyl) uracil], the melting point is 255 °C (dec.).

The molecule `C#C[C@@]1(O)[C@@H](CO)O[C@@H](n2cc(C)c(=O)[nH]c2=O)[C@@H]1O` [Compound 12, 1-(3-C-ethynyl-β-D-ribofuranosyl) thymine] registered a melting point of 113 to 118 °C.

Turning to `C#C[C@@]1(O)[C@@H](CO)O[C@@H](n2cnc3c(=O)[nH]c(N)nc32)[C@@H]1O` [Compound 16, 9-(3-C-ethynyl-β-D-ribofuranosyl) guanine], the melting point was 225 °C (dec.).

`C=C[C@@]1(O)[C@@H](CO)O[C@@H](n2ccc(N)nc2=O)[C@@H]1O` [Compound 22, 1-(3-C-ethenyl-β-D-ribofuranosyl) cytosine]: the melting point lay within 194 to 197 °C.

For `CC#C[C@@]1(O)[C@@H](CO)O[C@@H](n2ccc(=O)[nH]c2=O)[C@@H]1O` [Compound 24, 1-(3-C-(1-propynyl)-β-D-ribofuranosyl)uracil], the melting point is 211 to 213 °C.

In turn, `CCC#C[C@@]1(O)[C@@H](CO)O[C@@H](n2ccc(=O)[nH]c2=O)[C@@H]1O` [Compound 26, 1-(3-C-(1-butynyl)-β-D-ribofuranosyl) uracil] showed a melting point of 139 to 142 °C.

Turning to `C=C[C@@]1(O)[C@@H](CO)O[C@@H](n2ccc(=O)[nH]c2=O)[C@@H]1O` [Compound 28, 1-(3-C-ethenyl-β-D-ribofuranosyl) uracil], the melting point was 219 to 222 °C.

Regarding `C[Si](C)(C)C#C[C@@]1(O)[C@@H](CO)O[C@@H](n2ccc(=O)[nH]c2=O)[C@@H]1O` [Compound 35, 1-(3-C-trimethylsilylethynyl-β-D-ribofuranosyl)uracil], the melting point is 175 to 177 °C. Further, the IC50 in data set [1] amounted to 7.8 ng/mL (≈ 0.0229 µM).
